Laboratory results as given in publication PMC6104608, “Design, synthesis, and evaluation of curcumin analogues as potential inhibitors of bacterial sialidase” (Journal of Enzyme Inhibition and Medicinal Chemistry, 2018).

Columns and labels:
S. pneumoniae Nan A [1] = target: T1, S. pneumoniae Nan A (Streptococcus pneumoniae, UniProt P62575); experiment: Fluorescence-based inhibition assay of S. pneumoniae Nan A with MUNANA substrate; type: biochemical; conditions: for IC50: 2.2 nM Nan A, 50 µM substrate, pH 7.5, triplicate, read-out: IC50 against S. pneumoniae Nan A
T1 construct: 6x His-tag (C); made in house; host or cells: E. coli BL21 (DE3)

[2] = target: T2, Vibrio cholerae sialidase (Vibrio cholerae serotype O1, UniProt P0C6E9); experiment: biochemical
T2 construct: purchased Sigma 72197

S. pneumoniae Nan A [3] = target: T1, S. pneumoniae Nan A; experiment: Enzyme kinetic study (inhibition mechanism and Ki) on Nan A; type: biochemical; conditions: for Inhibition type against Nan A: Lineweaver-Burk and Dixon plots; for Ki: nonlinear regression, SigmaPlot Enzyme Kinetics, read-out: Ki against Nan A

T1 sequence (P62575 319-822 limits assumed): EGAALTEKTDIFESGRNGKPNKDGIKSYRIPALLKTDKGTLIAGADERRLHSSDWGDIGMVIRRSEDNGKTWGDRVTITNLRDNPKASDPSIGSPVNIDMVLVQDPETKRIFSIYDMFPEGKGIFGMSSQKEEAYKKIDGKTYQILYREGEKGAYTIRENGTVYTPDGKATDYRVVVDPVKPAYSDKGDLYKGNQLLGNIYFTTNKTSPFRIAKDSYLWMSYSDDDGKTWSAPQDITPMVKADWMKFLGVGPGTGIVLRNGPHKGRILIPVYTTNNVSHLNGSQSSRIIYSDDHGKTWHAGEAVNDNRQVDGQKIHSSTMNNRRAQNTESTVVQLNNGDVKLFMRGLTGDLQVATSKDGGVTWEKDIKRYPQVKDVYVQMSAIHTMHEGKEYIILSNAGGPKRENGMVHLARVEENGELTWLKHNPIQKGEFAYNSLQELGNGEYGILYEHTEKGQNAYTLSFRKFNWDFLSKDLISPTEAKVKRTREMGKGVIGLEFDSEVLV
T2 sequence (P0C6E9 25-781): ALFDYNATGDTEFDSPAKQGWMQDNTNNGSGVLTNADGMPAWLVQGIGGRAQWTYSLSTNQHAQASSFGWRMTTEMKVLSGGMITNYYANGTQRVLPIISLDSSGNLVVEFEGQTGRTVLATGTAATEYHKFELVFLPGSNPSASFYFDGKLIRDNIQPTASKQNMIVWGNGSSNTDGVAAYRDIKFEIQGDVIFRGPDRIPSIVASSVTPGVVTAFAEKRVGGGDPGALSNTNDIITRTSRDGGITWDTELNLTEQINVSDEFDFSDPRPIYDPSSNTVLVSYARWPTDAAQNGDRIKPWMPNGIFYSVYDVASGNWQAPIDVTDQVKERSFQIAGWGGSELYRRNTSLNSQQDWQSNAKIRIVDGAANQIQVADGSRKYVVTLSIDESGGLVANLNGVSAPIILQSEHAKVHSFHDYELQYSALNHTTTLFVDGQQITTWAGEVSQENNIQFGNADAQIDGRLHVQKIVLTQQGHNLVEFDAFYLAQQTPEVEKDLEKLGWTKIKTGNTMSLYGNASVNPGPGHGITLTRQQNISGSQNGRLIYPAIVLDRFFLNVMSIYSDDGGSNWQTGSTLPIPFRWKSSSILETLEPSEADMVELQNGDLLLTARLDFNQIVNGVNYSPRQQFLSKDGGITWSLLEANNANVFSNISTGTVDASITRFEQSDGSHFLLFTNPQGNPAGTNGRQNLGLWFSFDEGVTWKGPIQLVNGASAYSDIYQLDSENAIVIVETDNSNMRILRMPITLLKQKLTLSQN

SMILES	IC50 (S. pneumoniae Nan A [1]) [nM]	IC50 [2] [nM]	melting point	Inhibition type against Nan A (S. pneumoniae Nan A [3])	Ki (S. pneumoniae Nan A [3]) [nM]	fold improvement in Nan A inhibitory activity over curcumin (S. pneumoniae Nan A [1]; IC50 ratio versus curcumin (4a)) [fold]
COc1cc(C=CC(O)=CC(=O)C=Cc2cccnc2)ccc1O [Compound 5g, 5-Hydroxy-7-(4-hydroxy-3-methoxyphenyl)-1-(pyridin-3-yl)hepta-1,4,6-trien-3-one]	4400 ± 100	43600 ± 100	185 °C (dec.)	–	–	–
COc1cc(C=Cc2cc(C=Cc3ccc(O)c(OC)c3)[nH]n2)ccc1O [Compound 8]	6200 ± 1500	41600 ± 18700	–	–	–	–
O=C(C=Cc1ccc(O)cc1)C=C(O)C=Cc1ccc(O)cc1 [Compound 4e, 5-Hydroxy-1,7-bis(4-hydroxyphenyl)hepta-1,4,6-trien-3-one]	4000 ± 1200	15100 ± 100	–	noncompetitive inhibition	1200	–
COc1cc(/C=C/C(=O)/C=C(O)/C=C/c2ccc(F)cc2)ccc1O [Compound 5l, 1-(4-Fluorophenyl)-5-hydroxy-7-(4-hydroxy-3-methoxyphenyl)hepta-1,4,6-trien-3-one]	1800 ± 200	–	146 to 147 °C	–	–	–
COc1cc(/C=C/C(=O)/C=C(O)/C=C/c2ccc(OC(C)=O)c(OC)c2)ccc1OC(C)=O [Compound 7, 3-Hydroxy-5-oxohepta-1,3,6-triene-1,7-diyl)bis(2-methoxy-4,1-phenylene) diacetate]	2600 ± 600	37500 ± 3500	–	–	–	–
COC(=O)CCCOc1ccc(C=CC(=O)C=C(O)C=Cc2ccc(O)c(OC)c2)cc1OC [Compound 5i, Methyl 4-(4-(5-hydroxy-7–(4-hydroxy-3-methoxyphenyl)-3-oxohepta-1,4,6-trien-1-yl)-2-methoxyphenoxy)-butanoate]	1000 ± 500	9500 ± 1500	100 to 101 °C	–	–	–
COc1ccc(/C=C/C(=O)/C=C(O)/C=C/c2ccc(O)c(O)c2)cc1O [Compound 5e, 1-(3,4-Dihydroxyphenyl)-5-hydroxy-7-(3-hydroxy-4-methoxyphenyl)hepta-1,4,6-trien-3-one]	200 ± 100	4800 ± 1500	203 to 204 °C	competitive inhibition	140	3.0
COc1cc(/C=C/C(O)=C/C(=O)/C=C/c2ccc(OC)c(OC)c2)ccc1O [Compound 5a, 7-(3,4-Dimethoxyphenyl)-5-hydroxy-1-(4-hydroxy-3-methoxyphenyl)hepta-1,4,6-trien-3-one]	1500 ± 700	11700 ± 200	–	–	–	–
COc1cc(/C=C/C(=O)/C=C(O)/C=C/c2ccc(NC(C)=O)cc2)ccc1O [Compound 5n, N-(4–(5-Hydroxy-7–(4-hydroxy-3-methoxyphenyl)-3-oxohepta-1,4,6-trien-1-yl)phenyl)acetamide]	1800 ± 400	6800 ± 800	183 to 185 °C	–	–	–
COc1cc(/C=C/C(=O)/C=C(O)/C=C/c2ccc(N3CCCCC3)cc2)ccc1O [Compound 5s, 5-Hydroxy-7-(4-hydroxy-3-methoxyphenyl)-1-(4-(piperidin-1-yl)phenyl)hepta-1,4,6-trien-3-one]	1500 ± 100	–	204 to 205 °C	–	–	–
COc1cc(/C=C/C(=O)/C=C(O)/C=C/c2ccc([N+](=O)[O-])cc2)ccc1O [Compound 5j, 5-Hydroxy-7-(4-hydroxy-3-methoxyphenyl)-1-(4-nitrophenyl)hepta-1,4,6-trien-3-one]	900 ± 300	6900 ± 1800	204 to 205 °C	–	–	–
COc1cc(/C=C/C(=O)/C=C(O)/C=C/c2ccc(N)cc2)ccc1O [Compound 5q, 1-(4-Aminophenyl)-5-hydroxy-7-(4-hydroxy-3-methoxyphenyl)hepta-1,4,6-trien-3-one]	1600 ± 100	2900 ± 900	99 to 100 °C	noncompetitive inhibition	800	–
COc1ccc(C=CC(=O)C=C(O)C=Cc2ccc(OC)c(O)c2)cc1O [Compound 4b, 5-Hydroxy-1,7-bis(3-hydroxy-4-methoxyphenyl)hepta-1,4,6-trien-3-one]	1000 ± 400	7600 ± 500	182 to 183 °C	–	–	–
CCOc1cc(/C=C/C(O)=C/C(=O)/C=C/c2ccc(O)c(OC)c2)ccc1O [Compound 5f, 1-(3-Ethoxy-4-hydroxyphenyl)-5-hydroxy-7-(4-hydroxy-3-methoxyphenyl)hepta-1,4,6-trien-3-one]	1500 ± 800	6700 ± 600	182 to 183 °C	–	–	–
COc1ccc(/C=C/C(=O)/C=C(O)/C=C/c2ccc(OC)c(OC)c2)cc1OC [Compound 4c, 1,7-Bis(3,4-dimethoxyphenyl)-5-hydroxyhepta-1,4,6-trien-3-one]	3400 ± 1000	21500 ± 7000	–	–	–	–
COc1cc(/C=C/C(=O)/C=C(O)/C=C/c2ccc(O)c(OC)c2)ccc1O [Compound 4a, curcumin]	600 ± 100	5300 ± 700	–	noncompetitive inhibition	1300	–
COc1cc(/C=C/C(=O)/C=C(O)/C=C/c2ccc(O)c(O)c2)ccc1O [Compound 5d, 1-(3,4-Dihydroxyphenyl)-5-hydroxy-7-(4-hydroxy-3-methoxyphenyl)hepta-1,4,6-trien-3-one]	700 ± 200	2700 ± 800	–	–	–	–
COc1cc(/C=C/C(=O)/C=C(O)/C=C/c2ccc(Br)cc2)ccc1O [Compound 5m, 1-(4-Bromophenyl)-5-hydroxy-7-(4-hydroxy-3-methoxyphenyl)hepta-1,4,6-trien-3-one]	1000 ± 200	–	148 to 149 °C	–	–	–
COc1cc(/C=C/C(=O)/C=C(O)/C=C/c2ccccc2)ccc1O [Compound 5h, 5-Hydroxy-7-(4-hydroxy-3-methoxyphenyl)-1-phenylhepta-1,4,6-trien-3-one]	7100 ± 100	–	135 to 137 °C	–	–	–
COc1cc(/C=C/C(=O)/C=C(O)/C=C/c2ccc(N(C)C)cc2)ccc1O [Compound 5r, 1-(4-(Dimethylamino)phenyl)-5-hydroxy-7-(4-hydroxy-3-methoxyphenyl)hepta-1,4,6-trien-3-one]	1500 ± 200	1900 ± 200	–	–	–	–
COc1ccc(/C=C/C(O)=C/C(=O)/C=C/c2ccc(O)c(OC)c2)cc1O [Compound 5c, 5-Hydroxy-7-(4-hydroxy-3-methoxyphenyl)-1-(3-hydroxy-4-methoxyphenyl)hepta-1,4,6-trien-3-one]	1000 ± 400	7700 ± 700	137 to 140 °C	–	–	–
COc1ccc(/C=C/C(O)=C/C(=O)/C=C/c2ccc(O)c(OC)c2)cc1 [Compound 5o, 5-Hydroxy-7-(4-hydroxy-3-methoxyphenyl)-1-(4-methoxyphenyl)hepta-1,4,6-trien-3-one]	1200 ± 100	4200 ± 800	143 to 145 °C	–	–	–
COc1cc(/C=C/C(=O)/C=C(O)/C=C/c2ccc(O)cc2)ccc1O [Compound 5p, 5-Hydroxy-7-(4-hydroxy-3-methoxyphenyl)-1-(4-hydroxyphenyl)hepta-1,4,6-trien-3-one]	600 ± 200	4300 ± 700	–	–	–	–
COc1ccc(/C=C/C(O)=C/C(=O)/C=C/c2ccc(OC)c(OC)c2)cc1O [Compound 5b, 7-(3,4-Dimethoxyphenyl)-5-hydroxy-1-(3-hydroxy-4-methoxyphenyl)hepta-1,4,6-trien-3-one]	600 ± 100	9200 ± 200	155 to 158 °C	–	–	–
O=C(C=Cc1ccc(O)c(O)c1)C=C(O)C=Cc1ccc(O)c(O)c1 [Compound 4d, 1,7-bis(3,4-dihydroxyphenyl)-5-hydroxyhepta-1,4,6-trien-3-one]	1500 ± 700	11900 ± 2000	300 °C (dec.)	–	–	–
COc1cc(/C=C/C(=O)/C=C(O)/C=C/c2ccc(C(F)(F)F)cc2)ccc1O [Compound 5k, 5-Hydroxy-7-(4-hydroxy-3-methoxyphenyl)-1-(4-(trifluoromethyl)phenyl)hepta-1,4,6-trien-3-one]	1000 ± 100	–	158 to 160 °C	–	–	–
COc1cc(CCC(=O)/C=C(\O)CCc2ccc(O)c(OC)c2)ccc1O [Compound 6, 1,7-Bis(4-hydroxy-3-methoxyphenyl)heptane-3,5-dione]	82100 ± 7600	–	–	–	–	–
COc1cc(C=CC(O)=C2CCCC(=Cc3ccc(O)c(OC)c3)C2=O)ccc1O [Compound 4f, 2–(1-Hydroxy-3-(4-hydroxy-3-methoxyphenyl)allylidene)-6-(4-hydroxy-3-methoxybenzylidene)cyclohexan-1-one]	4700 ± 500	24900 ± 1800	182 to 183 °C	–	–	–
